Measurements as given in patent US4665075A, “Derivatives of hydroxy- or amino-substituted (piperidinylalkyl)quinazolines” (Janssen Pharmaceutica N.V., priority 1985, dated 1987).

Assays:
[1] = system: cyanosis, gastric lesions and shock induced by compound 48/80; conditions: rats injected with compound 48/80; cited from earlier work
[2] = system: serotonin-induced contraction of the caudal artery of the rat; experiment: Test 1: Antagonistic activity on the effect of serotonin on the caudal artery of the rat; conditions: rat caudal artery strips; serotonin 40 ng/ml; measured 5 minutes after adding the drug
Procedure: Test 1: Antagonistic activity on the effect of serotonin on the caudal artery of the rat
Caudal arteries from fasted male rats (210-235 g) were used in the test. Two helical strips having a length of 5-6 cm and a width of 2 mm were obtained from each artery and mounted vertically in a 100 ml organ bath containing an oxygenated Krebs-Henseleit solution. Submaximal contractions of the arterial strips were produced by adding single doses of serotonin (40 ng/ml) to the organ bath for 2 minutes with each time an interval of 10 minutes. The amplitude of the contraction is measured before and 5 minutes after adding the drug. After washing out, the agonist was added again three times in order to see whether the contraction is restored and normalized.
In this connection the ED50 -values are the minimal concentrations of the concerned drugs which reduce the amplitude of the contraction to at least 50% of its normal value.

[3] = system: gastric lesions induced by compound 48/80; experiment: Test 2: Effects in gastric lesion tests; lesions induced by compound 48/80; assay type: in vivo, rat (male, Wistar inbred strain); conditions: oral, 2 hours before compound 48/80 1 mg/kg i.v.; stomachs inspected 4 hours later
Procedure: Test 2: Effects in gastric lesion tests
The shock, followed by dead, can be avoided if the rats are pretreated with a classical H1 antagonist.
Male rats of a Wistar inbred strain, weighing 220-250 g, were starved overnight, water being available ad libitum. The test compounds were administered orally as a solution or as a suspension in aqueous medium. A control rat and a "blank" rat receive the test compound. One hour later 5-[4-(diphenylmethyl)-1-piperazinyl-methyl]-1-methyl-1H-benzimidazole-2-methanol is adhministered subcutaneously to all rats at the dose of 2.5 mg/kg. […] Five minutes after the injection the intensity of purple-blue coloration (cyanosis) of the extremities was scored as 0 (absent), + (moderate) or ++ (intense). Four hours after the intravenous injection of compound 48/80 the rats were decapitated and the stomachs were removed. Subsequently the stomachs were inspected for distension and contents (blood, fluid, food) and thoroughly rinsed. The macroscopic lesions were scored from 0 to +++, 0 corrsponding to complete absence of visible lesions and the highest score corresponding to reddish rough patches covering more than half the glandular area.
The compounds listed in table 1 are not given for the purpose of limiting the invention thereto but only to exemplify the useful pharmacological activities of all the compounds within the scope of formula (I).

CN1CCC(=C2c3ccccc3CCc3sccc32)CC1 [pizotifen]
prevention of the abnormal gastric distension [1]: prevent completely
prevention of the cyanosis of ears and extremities [1]: prevent completely
prevention of the lesions in the glandular area of the stomach [1]: prevent completely

CC[C@@H](CO)NC(=O)[C@@H]1C=C2c3cccc4c3c(cn4C)C[C@H]2N(C)C1 [methysergide]
prevention of the abnormal gastric distension [1]: prevent completely
prevention of the cyanosis of ears and extremities [1]: prevent completely
prevention of the lesions in the glandular area of the stomach [1]: prevent completely

CN1CCC(=C2c3ccccc3C=Cc3ccccc32)CC1 [cyproheptadine]
prevention of the abnormal gastric distension [1]: prevent completely
prevention of the cyanosis of ears and extremities [1]: prevent completely
prevention of the lesions in the glandular area of the stomach [1]: prevent completely

Nc1ccc2c(=O)n(CCN3CCC(C(=O)c4ccc(F)cc4)CC3)c(=S)[nH]c2c1 [Compound 9, 7-amino-3-[2-[4-(4-fluorobenzoyl)-1-piperidinyl]ethyl]-2,3-dihydro-2-thioxo-4(1H)-quinazolinone]
Caudal artery ED50 (minimal concentration which reduces the amplitude of the serotonin-induced contraction to at least 50% of its normal value) [2]: 0.18 ng/mL
Gastric lesion ED50 (dose at which distension of the stomach and lesions in the glandular area are completely absent in 50% of the test rats) [3]: 0.005 mg/kg

CC(=O)Nc1ccc2c(=O)n(CCN3CCC(C(=O)c4ccc(F)cc4)CC3)c(=O)[nH]c2c1 [Compound 22]
Caudal artery ED50 (minimal concentration which reduces the amplitude of the serotonin-induced contraction to at least 50% of its normal value) [2]: 0.37 ng/mL
Gastric lesion ED50 (dose at which distension of the stomach and lesions in the glandular area are completely absent in 50% of the test rats) [3]: 0.04 mg/kg

NC(=O)C1(N2CCCCC2)CCN(CCCC(=O)c2ccc(F)cc2)CC1 [pipamperone]
prevention of the abnormal gastric distension [1]: prevent completely
prevention of the cyanosis of ears and extremities [1]: prevent completely
prevention of the lesions in the glandular area of the stomach [1]: prevent completely

Nc1ccc2c(=O)n(CCCCN3CCC(C(=O)c4ccc(F)cc4)CC3)c(=S)[nH]c2c1 [Compound 11, 7-amino-3-[4-[4-(4-fluorobenzoyl)-1-piperidinyl]butyl]-2,3-dihydro-2-thioxo-4(1H)-quinazolinone]
Caudal artery ED50 (minimal concentration which reduces the amplitude of the serotonin-induced contraction to at least 50% of its normal value) [2]: < 0.63 ng/mL
Gastric lesion ED50 (dose at which distension of the stomach and lesions in the glandular area are completely absent in 50% of the test rats) [3]: 0.63 mg/kg

CN1CCN2c3ccccc3Cc3ccccc3C2C1 (centres unmarked) [mianserin]
prevention of the abnormal gastric distension [1]: prevent completely
prevention of the cyanosis of ears and extremities [1]: prevent completely
prevention of the lesions in the glandular area of the stomach [1]: prevent completely

Nc1ccc2c(=O)n(CCCCN3CCC(C(=O)c4ccc(F)cc4)CC3)c(=O)[nH]c2c1 [Compound 8, 7-amino-3-[4-[4-(4-fluorobenzoyl)-1-piperidinyl]butyl]-2,4(1H,3H)-quinazolinedione]
Caudal artery ED50 (minimal concentration which reduces the amplitude of the serotonin-induced contraction to at least 50% of its normal value) [2]: 0.32 ng/mL
Gastric lesion ED50 (dose at which distension of the stomach and lesions in the glandular area are completely absent in 50% of the test rats) [3]: 0.04 mg/kg

CN(C)CCCSc1ccccc1NC(=O)/C=C/c1ccccc1 [cinanserin]
prevention of the abnormal gastric distension [1]: prevent completely
prevention of the cyanosis of ears and extremities [1]: prevent completely
prevention of the lesions in the glandular area of the stomach [1]: prevent completely

Nc1ccc2c(=O)n(CCN3CCC(C(=O)c4ccc(F)cc4)CC3)c(=O)[nH]c2c1 [Compound 12, 7-amino-3-[2-[4-(4-fluorobenzoyl)-1-piperidinyl]ethyl]-2,4(1H,3H)-quinazolinedione]
Caudal artery ED50 (minimal concentration which reduces the amplitude of the serotonin-induced contraction to at least 50% of its normal value) [2]: < 0.63 ng/mL
Gastric lesion ED50 (dose at which distension of the stomach and lesions in the glandular area are completely absent in 50% of the test rats) [3]: 0.04 mg/kg

CN1C[C@H](CNC(=O)OCc2ccccc2)C[C@@H]2c3cccc4c3c(cn4C)C[C@H]21 [metergoline]
prevention of the abnormal gastric distension [1]: prevent completely
prevention of the cyanosis of ears and extremities [1]: prevent completely
prevention of the lesions in the glandular area of the stomach [1]: prevent completely

CC(=O)Nc1ccc2c(=O)n(CCN3CCC(C(=O)c4ccc(F)cc4)CC3)c(=S)[nH]c2c1 [Compound 19, N-[3-[2-[4-(4-fluorobenzoyl)-1-piperidinyl]ethyl]-1,2,3,4-tetrahydro-4-oxo-2-thioxo-7-quinazolinyl]acetamide]
Caudal artery ED50 (minimal concentration which reduces the amplitude of the serotonin-induced contraction to at least 50% of its normal value) [2]: 0.32 ng/mL
Gastric lesion ED50 (dose at which distension of the stomach and lesions in the glandular area are completely absent in 50% of the test rats) [3]: 0.01 mg/kg

CC(=O)Nc1ccc2c(=O)n(CCCCN3CCC(C(=O)c4ccc(F)cc4)CC3)c(=O)[nH]c2c1 [Compound 18, N-[3-[4-[4-(4-fluorobenzoyl)-1-piperidinyl]butyl]-1,2,3,4-tetrahydro-2,4-dioxo-7-quinazolinyl]-acetamide]
Caudal artery ED50 (minimal concentration which reduces the amplitude of the serotonin-induced contraction to at least 50% of its normal value) [2]: 0.32 ng/mL
Gastric lesion ED50 (dose at which distension of the stomach and lesions in the glandular area are completely absent in 50% of the test rats) [3]: 0.08 mg/kg

O=C(CCCN1CCC2(CC1)C(=O)NCN2c1ccccc1)c1ccc(F)cc1 [spiperone]
prevention of the abnormal gastric distension [1]: prevent completely
prevention of the cyanosis of ears and extremities [1]: prevent completely
prevention of the lesions in the glandular area of the stomach [1]: prevent completely
